Values of other authors in PMC6311893, “Computational prediction of plasma protein binding of cyclic peptides from small molecule experimental data using sparse modeling techniques” (BMC Bioinformatics, 2018).

Test system: plasma protein
Details: fraction bound to plasma protein; small molecule dataset, sheet 1-SM (Set Dte = test, Dtr = training); ref Ingle et al.; cited from earlier work

Point of comparison: `CC1(C)SC2C(NC(=O)c3cccc4ccccc34)C(=O)N2C1C(=O)O` (centres unmarked) [penicillin64], “PPB (fb)” value 0.86. Against it:
- COC(=O)[C@H](c1ccccc1Cl)N1CCc2sccc2C1 [clopidogrel] — higher, 0.98
- C[C@H](Cn1cnc2c(N)ncnc21)OCP(=O)(O)O [Tenofovir] — lower, 0.07
- CC(C)(C)NCC(O)COc1cccc2c1SCCC2 (centres unmarked) [tertatolol] — higher, 0.95
- C[C@@H]([C@@H](O)c1ccc(O)cc1)N1CCC(O)(c2ccccc2)CC1 [Traxoprodil] — lower, 0.37
- CC[C@H]1OC(=O)[C@H](C)[C@@H](O[C@H]2C[C@@](C)(OC)[C@@H](O)[C@H](C)O2)[C@H](C)[C@@H](O[C@@H]2O[C@H](C)C[C@H](N(C)C)[C@H]2O)[C@](C)(O)C[C@@H](C)/C(=N\OCOCCOC)[C@H](C)[C@@H](O)[C@]1(C)O [roxithromycin] — lower, 0.78
- COc1cc2nc(N(C)CCCNC(=O)C3CCCO3)nc(N)c2cc1OC (centres unmarked) [alfuzosin] — higher, 0.9
- CC(c1cc2ccccc2s1)N(O)C(N)=O (centres unmarked) [zileuton] — higher, 0.93
- CC(C)Nc1cccnc1N1CCN(C(=O)c2cc3cc(NS(C)(=O)=O)ccc3[nH]2)CC1 [delavirdine] — higher, 0.98
- Cn1c(=O)c2c(ncn2CCCNCC(O)c2cc(O)cc(O)c2)n(C)c1=O (centres unmarked) [reproterol] — lower, 0.5
- CN(C)C(=O)Oc1cc(OC(=O)N(C)C)cc(C(O)CNC(C)(C)C)c1 (centres unmarked) [bambuterol] — lower, 0.45
- CNCCCC12CCC(c3ccccc31)c1ccccc12 [Maprotiline] — higher, 0.89
- Cc1nnc(SCC2=C(C(=O)O)N3C(=O)[C@@H](NC(=O)Cn4cnnn4)[C@H]3SC2)s1 [Cefazolin] — lower, 0.83
- COCCc1ccc(OCC(O)CNC(C)C)cc1 (centres unmarked) [Metoprolol] — lower, 0.11

Same assay, conditions: fraction bound to plasma protein; small molecule dataset, sheet 1-SM, Set Dtr; ref Ingle et al.; cited from earlier work

Point of comparison: `CN(C)/N=N/c1[nH]cnc1C(N)=O` [Dacarbazine], “PPB (fb)” value 0.02. Against it:
- CNC(=C[N+](=O)[O-])NCCSCc1csc(CN(C)C)n1 [Nizatidine] — higher, 0.32
- CN(C)CCCN1c2ccccc2Sc2ccccc21 [Promazine] — higher, 0.89
- CC1=C(C/C=C(\C)CCCC(C)CCCC(C)CCCC(C)C)C(=O)c2ccccc2C1=O (centres unmarked) [vitamin-K] — higher, 0.9
- CC(=O)OCC1=C(C(=O)O)N2C(=O)[C@@H](NC(=O)CSc3ccncc3)[C@H]2SC1 [Cephapirin] — higher, 0.53
- C[C@H](N[C@@H](CCc1ccccc1)C(=O)O)C(=O)N1[C@H](C(=O)O)C[C@H]2CCCC[C@@H]21 [trandolaprilat] — higher, 0.94
- NCC[C@H](O)C(=O)N[C@@H]1C[C@H](N)[C@@H](O[C@H]2O[C@H](CN)[C@@H](O)[C@H](O)[C@H]2O)[C@H](O)[C@H]1O[C@H]1O[C@H](CO)[C@@H](O)[C@H](N)[C@H]1O [Amikacin] — higher, 0.09

Same assay, conditions: fraction bound to plasma protein; small molecule dataset, sheet 1-SM; ref Ingle et al.; cited from earlier work

Point of comparison: `Cc1ccccc1C(OCCN(C)C)c1ccccc1` (centres unmarked) [orphenadrine], “PPB (fb)” value 0.95. Against it:
- CC1(C)SC2C(NC(=O)C(N)c3ccc(Cl)cc3)C(=O)N2C1C(=O)O (centres unmarked) [penicillin28] — lower, 0.55
- CC(C(=O)O)c1ccc(-c2ccccc2)c(F)c1 (centres unmarked) [flurbiprofen] — higher, 0.99
- Nc1ccc(S(=O)(=O)Nc2ncccn2)cc1 [Sulfadiazine] — lower, 0.45
- NS(=O)(=O)c1cc2c(cc1C(F)(F)F)NCNS2(=O)=O [hydroflumethiazide] — lower, 0.75
- COc1ccc(C(N)C(=O)NC2C(=O)N3C2SC(C)(C)C3C(=O)O)cc1 (centres unmarked) [penicillin34] — lower, 0.38
- CO[C@H]1/C=C/O[C@@]2(C)Oc3c(C)c(O)c4c(O)c(c(/C=N/N5CCN(C6CCCC6)CC5)c(O)c4c3C2=O)NC(=O)/C(C)=C\C=C\[C@H](C)[C@H](O)[C@@H](C)[C@@H](O)[C@@H](C)[C@H](OC(C)=O)[C@@H]1C [Rifapentine] — lower, 0.93
- Cc1nc(NS(=O)(=O)c2ccc(N)cc2)oc1C [sulfamoxole] — lower, 0.7
- N[C@@H](CC(=O)N1CCn2c(nnc2C(F)(F)F)C1)Cc1cc(F)c(F)cc1F [Sitagliptin] — lower, 0.38
- O=C(O)/C=C/c1ccc(O)cc1 [p-coumaric acid] — lower, 0.65
- CC(C)(C)c1ccc(C(O)CCCN2CCC(C(O)(c3ccccc3)c3ccccc3)CC2)cc1 (centres unmarked) [terfenadine] — lower, 0.84
- COc1ccc2cc(CCC(C)=O)ccc2c1 [nabumetone] — higher, 0.99
- COC(C(=O)NC1C(=O)N2C1SC(C)(C)C2C(=O)O)c1cccc(F)c1 (centres unmarked) [penicillin45] — lower, 0.65
- CO[C@]1(CC[C@@H](C)CO[C@@H]2O[C@H](CO)[C@@H](O)[C@H](O)[C@H]2O)O[C@H]2C[C@H]3[C@@H]4CC=C5C[C@@H](O[C@@H]6O[C@H](CO)[C@@H](O[C@@H]7O[C@@H](C)[C@H](O)[C@@H](O)[C@H]7O)[C@H](O)[C@H]6O[C@@H]6O[C@@H](C)[C@H](O)[C@@H](O)[C@H]6O)CC[C@]5(C)[C@H]4CC[C@]3(C)[C@H]2[C@@H]1C [methyl protodioscin] — lower, 0.84
- Cc1ccccc1OCC(O)CNCCOc1ccc(C(N)=O)cc1 (centres unmarked) [Tolamolol] — lower, 0.91
- Cn1nnc2c(C(N)=O)ncn2c1=O [temozolomide] — lower, 0.15
- C[C@@H]1CN(c2c(F)c(N)c3c(=O)c(C(=O)O)cn(C4CC4)c3c2F)C[C@H](C)N1 [Sparfloxacin] — lower, 0.45
- Cc1ncc(CO)c(CO)c1O [pyridoxine] — lower, 0
- CC1(C)S[C@@H]2[C@H](NC(=O)[C@H](C(=O)O)c3ccsc3)C(=O)N2[C@H]1C(=O)O [Ticarcillin] — lower, 0.51
- CC(C)(C)NC(=O)[C@@H]1C[C@@H]2CCCC[C@@H]2CN1C[C@@H](O)[C@H](Cc1ccccc1)NC(=O)[C@H](CC(N)=O)NC(=O)c1ccc2ccccc2n1 [Saquinavir] — higher, 0.98
- CN1C(=O)CC(C)(c2ccccc2)C1=O (centres unmarked) [mesuximide] — lower, 0
- CC(C)Cc1ccc(C(C)C(=O)NCCCN2CCCC2)cc1 (centres unmarked) [JMC_06] — lower, 0.85
- CC1(C)SC2C(NC(=O)C(Oc3ccccc3)c3ccccc3)C(=O)N2C1C(=O)O (centres unmarked) [penicillin51] — higher, 0.97
- CN(C)CC(c1ccc(O)cc1)C1(O)CCCCC1 (centres unmarked) [O-desmethylvenlafaxine] — lower, 0.3
- O=C(O)c1cc(/N=N/c2ccc(S(=O)(=O)Nc3ccccn3)cc2)ccc1O [sulfasalazine] — higher, 0.97

Same assay, conditions: plasma; cited from earlier work

Point of comparison: `CCC[S+]([O-])c1ccc2[nH]c(NC(=O)OC)nc2c1` (centres unmarked) [albendazole sulfoxide], “PPB (fb)” value 0.7. Against it:
- COc1ccc2c3c1O[C@H]1C(=O)CC[C@@]4(O)[C@@H](C2)N(C)CC[C@]314 [Oxycodone] — lower, 0.45
- CCOC(=O)C1(c2ccccc2)CCN(CCC(O)c2ccccc2)CC1 (centres unmarked) [phenoperidine] — higher, 0.8
- CCC1(c2ccccc2)CCC(=O)NC1=O (centres unmarked) [glutethimide] — lower, 0.5
- CN1C(=O)CN=C(C2=CCCCC2)c2cc(Cl)ccc21 [tetrazepam] — the same, 0.7
- CCN1CCN(C(=O)N[C@@H](C(=O)N[C@@H]2C(=O)N3[C@@H]2SC(C)(C)[C@@H]3C(=O)O)c2ccccc2)C(=O)C1=O [Piperacillin] — lower, 0.4
- CCO [ethanol] — lower, 0
- CCOC(=O)[C@H](CCc1ccccc1)N[C@@H](C)C(=O)N1[C@H](C(=O)O)C[C@@H]2CCC[C@@H]21 [ramipril] — lower, 0.61
- O=C1CN=C(c2ccccc2)c2cc([N+](=O)[O-])ccc2N1 [Nitrazepam] — higher, 0.87
- Cc1ccccc1-n1c(C)nc2ccccc2c1=O [methaqualone] — higher, 0.85
